Reference: patent US8546405B2, “Anti-viral compounds” (Abbott Laboratories, priority 2008, dated 2013)

Tested on: replicon 1b-Con1
Test: HCV subgenomic replicon luciferase reporter assay, replicon 1b-Con1
Format: cell-based, Hepatitis C virus (HCV) genotype 1b-Con1
Settings: Hepatitis C virus
[1] = 72 h, stable subgenomic replicon cell line, luciferase reporter, three days incubation, values given as ranges or bound
[2] = same test, cell prints lower limit in nM and upper limit in μM

| Compound | IC50 [1] [nM] | IC50 [2] [nM] |
| --- | --- | --- |
| CC(C)c1ccc2c(Nc3cc(C(=O)NNC(=O)c4ccc(Sc5ccc(N)cc5)c(Nc5ncnc6nc(C(C)C)ccc56)c4)ccc3Sc3ccc(N)cc3)ncnc2n1 [Example 1, 4-(4-aminophenylthio)-N′-(4-(4-aminophenylthio)-3-(7-isopropylpyrido[2,3-d]pyrimidin-4-ylamino)benzoyl)-3-(7-isopropylpyrido[2,3-d]pyrimidin-4-ylamino)benzohydrazide] | 0.1 to 10 |  |
| CC(C)c1ccc2c(Nc3cc(NC(=O)c4ccc(Sc5ccc(N)cc5)c(Nc5ncnc6nc(C(C)C)ccc56)c4)ccc3Sc3ccc(N)cc3)ncnc2n1 [Example 2, 4-(4-aminophenylthio)-N-(4-(4-aminophenylthio)-3-(7-isopropylpyrido[2,3-d]pyrimidin-4-ylamino)phenyl)-3-(7-isopropylpyrido[2,3-d]pyrimidin-4-ylamino)benzamide] | 0.1 to 10 |  |
| CC(C)c1ccc2c(Nc3cc(NC(=O)Nc4ccc(Sc5ccc(N)cc5)c(Nc5ncnc6nc(C(C)C)ccc56)c4)ccc3Sc3ccc(N)cc3)ncnc2n1 [Example 3, 1,3-bis(4-(4-aminophenylthio)-3-(7-isopropylpyrido[2,3-d]pyrimidin-4-ylamino)phenyl)urea] | 10 to 100 |  |
| CC(C)c1ccc2c(Nc3cc(-c4ccc(-c5ccc(Sc6ccc(N)cc6)c(Nc6ncnc7nc(C(C)C)ccc67)c5)cc4)ccc3Sc3ccc(N)cc3)ncnc2n1 [Example 4, 4,4″-(4-amino-phenylsulfanyl)-N*3*,N*3″*-(7-isopropylpyrido[2,3-d]pyrimidin-4-yl)-[1,1′;4′,1″]terphenyl-3,3″-diamine] | 0.1 to 10 |  |
| CC(C)c1ccc2c(Nc3cc(C(=O)NCCNC(=O)c4ccc(Sc5ccc(N)cc5)c(Nc5ncnc6nc(C(C)C)ccc56)c4)ccc3Sc3ccc(N)cc3)ncnc2n1 [Example 5, N,N′-(ethane-1,2-diyl)bis(4-(4-aminophenylthio)-3-(7-isopropylpyrido[2,3-d]pyrimidin-4-ylamino)benzamide)] | 0.1 to 10 |  |
| CC(C)c1ccc2c(Nc3cc(C(=O)N4CCN(C(=O)c5ccc(Sc6ccc(N)cc6)c(Nc6ncnc7nc(C(C)C)ccc67)c5)CC4)ccc3Sc3ccc(N)cc3)ncnc2n1 [Example 6, piperazine-1,4-diylbis((4-(4-aminophenylthio)-3-(7-isopropylpyrido[2,3-d]pyrimidin-4-ylamino)phenyl)methanone)] | 0.1 to 10 |  |
| CC(C)c1ccc2c(Nc3cccc(C(=O)Nc4ccc(Sc5ccc(N)cc5)c(Nc5ncnc6nc(C(C)C)ccc56)c4)c3)ncnc2n1 [Example 7, N-(4-(4-aminophenylthio)-3-(7-isopropylpyrido[2,3-d]pyrimidin-4-ylamino)phenyl)-3-(7-isopropylpyrido[2,3-d]pyrimidin-4-ylamino)benzamide] |  | 100 to 10000 |
| CC(C)c1ccc2c(Nc3cc(C#Cc4ccc(Sc5ccc(N)cc5)c(Nc5ncnc6nc(C(C)C)ccc56)c4)ccc3Sc3ccc(N)cc3)ncnc2n1 [Example 8, N,N′-(5,5′-(ethyne-1,2-diyl)bis(2-(4-aminophenylthio)-5,1-phenylene))bis(7-isopropylpyrido[2,3-d]pyrimidin-4-amine)] | < 0.1 |  |
| CC(C)c1ccc2c(Nc3cc(CN(Cc4ccc(Sc5ccc(N)cc5)c(Nc5ncnc6nc(C(C)C)ccc56)c4)c4ccccc4)ccc3Sc3ccc(N)cc3)ncnc2n1 [Example 9] | < 0.1 |  |
| CC(C)c1ccc2c(Nc3cc(C(=O)NCCNC(=O)c4ccc(Sc5ccccc5)c(Nc5ncnc6nc(C(C)C)ccc56)c4)ccc3Sc3ccccc3)ncnc2n1 [Example 10] |  | 100 to 10000 |
| COc1ccc(CN(Cc2ccc(Sc3ccc(N)cc3)c(Nc3ncnc4nc(C(C)C)ccc34)c2)Cc2ccc(Sc3ccc(N)cc3)c(Nc3ncnc4nc(C(C)C)ccc34)c2)c(OC)c1 [Example 11] | 0.1 to 10 |  |
| CC(C)c1ccc2c(Nc3cc(-c4ccc(-c5ccc(Sc6ccc(N)cc6)c(Nc6ncnc7nc(C(C)C)ccc67)c5)nc4)ccc3Sc3ccc(N)cc3)ncnc2n1 [Example 12] | 0.1 to 10 |  |
| Cc1ccc2c(Nc3cc(-c4ccc(-c5ccc(Sc6ccc(N)cc6)c(Nc6ncnc7nc(C)ccc67)c5)cc4)ccc3Sc3ccc(N)cc3)ncnc2n1 [Example 13] | 0.1 to 10 |  |
| CC(C)c1ccc2c(Nc3cc(C#Cc4ccc(Sc5ccc(F)cc5)c(Nc5ncnc6nc(C(C)C)ccc56)c4)ccc3Sc3ccc(F)cc3)ncnc2n1 [Example 14] | 0.1 to 10 |  |
| CC(C)c1ccc2c(Nc3cc(C#Cc4ccc(Sc5ccccc5)c(Nc5ncnc6nc(C(C)C)ccc56)c4)ccc3Sc3ccccc3)ncnc2n1 [Example 15] | 0.1 to 10 |  |
| CC(C)c1ccc2c(Nc3cc(C#Cc4ccc(Sc5ccc(N(C)C)cc5)c(Nc5ncnc6nc(C(C)C)ccc56)c4)ccc3Sc3ccc(N(C)C)cc3)ncnc2n1 [Example 16] | 0.1 to 10 |  |
| CC(C)c1ccc2c(Nc3cc(C#Cc4ccc(Oc5ccccc5)c(Nc5ncnc6nc(C(C)C)ccc56)c4)ccc3Oc3ccccc3)ncnc2n1 [Example 17] | 0.1 to 10 |  |
| CC(C)c1ccc2c(Nc3cc(C#Cc4ccc(Sc5ccc(O)cc5)c(Nc5ncnc6nc(C(C)C)ccc56)c4)ccc3Sc3ccc(O)cc3)ncnc2n1 [Example 18] | 0.1 to 10 |  |
| CC(C)c1ccc2c(Nc3cc(C#Cc4ccc(Sc5cccc(N)c5)c(Nc5ncnc6nc(C(C)C)ccc56)c4)ccc3Sc3cccc(N)c3)ncnc2n1 [Example 19] | 0.1 to 10 |  |
| CC(C)c1ccc2c(Nc3cc(C#Cc4ccc(Oc5ccc(N)cc5)c(Nc5ncnc6nc(C(C)C)ccc56)c4)ccc3Oc3ccc(N)cc3)ncnc2n1 [Example 20] | 0.1 to 10 |  |
| Cc1ccc2c(Nc3cc(C#Cc4ccc(Sc5ccc(N)cc5)c(Nc5ncnc6nc(C)ccc56)c4)ccc3Sc3ccc(N)cc3)ncnc2n1 [Example 21] | 0.1 to 10 |  |
| Cc1ccc2c(Nc3cc(C#Cc4ccc(Sc5ccc(F)cc5)c(Nc5ccnc6nc(C)ccc56)c4)ccc3Sc3ccc(F)cc3)ccnc2n1 [Example 22] | 10 to 100 |  |
| CC(C)c1ccc2c(Nc3cc(C#Cc4ccc(Oc5ccc(CO)cc5)c(Nc5ncnc6nc(C(C)C)ccc56)c4)ccc3Oc3ccc(CO)cc3)ncnc2n1 [Example 23] | 0.1 to 10 |  |
| CC(C)c1ccc2c(Nc3cc(CN(Cc4ccc(Sc5ccc(N)cc5)c(Nc5ncnc6nc(C(C)C)ccc56)c4)C(C)C)ccc3Sc3ccc(N)cc3)ncnc2n1 [Example 24] | 0.1 to 10 |  |
| CC(C)c1ccc2c(Nc3cc(C#Cc4ccc(Oc5ccc(O)cc5)c(Nc5ncnc6nc(C(C)C)ccc56)c4)ccc3Oc3ccc(O)cc3)ncnc2n1 [Example 25] | 0.1 to 10 |  |
| CC(C)c1ccc2c(Nc3cc(C#Cc4ccc(Sc5ccc(OCc6ccccc6)cc5)c(Nc5ncnc6nc(C(C)C)ccc56)c4)ccc3Sc3ccc(OCc4ccccc4)cc3)ncnc2n1 [Example 26] | 0.1 to 10 |  |
| COc1ccc(Sc2ccc(CN(Cc3ccc(Sc4ccc(OC)cc4)c(Nc4ccnc5nc(C)ccc45)c3)C(C)C)cc2Nc2ccnc3nc(C)ccc23)cc1 [Example 28] | 10 to 100 |  |
